From US8809001B2, “High throughput assays for inhibitors and activators of PAQR receptors” (University of Florida Research Foundation, Inc., priority 2007, dated 2014)

Experiments:
mPRs = settings: determined by Thomas et al. (2008); read-out: Kd for progesterone binding to mPRs; cited from earlier work
Class II PAQRs = assay: FET3-lacZ response of the human PAQR panel to 10 μM progesterone: Class II; type: cell-based
Text: (§1) Plasmids and primers. Human PAQRs were cloned into various vectors by PCR from commercially/publically available cDNAs. PAQRs were cloned into the pYES260 (Melcher, 2000), pRS316 (Liu et al., 1992) or pGREG536 (Jansen et al., 2005) expression vectors using gap repair. The pJK90 plasmid containing a Dual Topology Reporter (DTR)-tagged OST4 gene driven by the constitutive TPI1 promoter was kindly provided by Dr. Gunnar von Heijne (Stockholm University) (Kim et al., 2003). The OST4 open reading frame in pJK90 was replaced with the PAQR6 and mPRα open reading frames by gap repair. Primers for all cloning reactions are listed herein. Proteins expressed in pYES260 have an N-terminal 6×-histidine tag followed by a TEV protease cleavage site. Proteins expressed in pGREG536 have an N-terminal 7×-HA tag. Proteins expressed in the pRS316 vector are untagged. The pYES260, pRS316 and pGREG536 vectors allow for galactose-inducible expression via the GAL1 promoter. […] The FET3-lacZ plasmid was previously described (Kupchak et al., 2007). […]
(§2) Assays and growth conditions. […] Cells were allowed to grow to mid-log phase at which time the activity of the FET3 gene was monitored using a FET3-lacZ promoter-reporter construct. lacZ activities are presented as a percentage of activity seen in untreated cells expressing the appropriate empty expression vector control. […]

PAQR6 = biological target: T1, PAQR6 (Homo sapiens, UniProt Q6TCH4); assay: FET3-lacZ reporter repression in yeast expressing PAQR6; type: cell-based; settings: PAQR6, Table 3
T1 construct: expressed in transfected cells; host or cells: Saccharomyces cerevisiae BY4742, GAL1-driven pYES260 plasmid
T1 sequence (Q6TCH4 1-344): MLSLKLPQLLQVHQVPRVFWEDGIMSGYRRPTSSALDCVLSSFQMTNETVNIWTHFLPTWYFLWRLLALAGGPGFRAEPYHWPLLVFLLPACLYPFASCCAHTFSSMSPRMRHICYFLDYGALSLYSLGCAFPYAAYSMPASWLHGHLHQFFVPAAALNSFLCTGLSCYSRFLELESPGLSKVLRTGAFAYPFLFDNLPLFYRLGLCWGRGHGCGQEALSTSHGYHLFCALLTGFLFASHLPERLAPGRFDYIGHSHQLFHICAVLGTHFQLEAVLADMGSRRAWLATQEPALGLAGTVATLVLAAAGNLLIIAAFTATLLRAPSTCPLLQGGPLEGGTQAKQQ
Text: as §1, §2

CC(=O)[C@H]1CC[C@H]2[C@@H]3CCC4=CC(=O)CC[C@]4(C)[C@H]3CC[C@]12C [Progesterone, progesterone]
Kd (mPRs): ~5 nM
agonist effect on all five Class II PAQRs (Class II PAQRs): effective agonist
EC50 (PAQR6): 2.6 nM
